Results published in patent US20090203610A1, “METHODS OF TREATING OBESITY OR DIABETES USING NT-4/5” (RINAT NEUROSCIENCE CORPORATION, priority 2004, published 2009).

Legend:
Type in all cases: in vivo
db/db mice [1] = assay: Blood glucose levels in db/db mice (Example 1); details: NT-4/5 20 mg/kg s.c., Rosiglitazone 3 mg/kg p.o.
Description: Administration of NT-4/5 and reference substances: Rosiglitazone (3 mg/kg, Sequoia Research Products Ltd., UK), a thiazolidinedione compound for the therapy of type 2 diabetes, was used in the present experiment as a reference. Phosphate buffer saline was used as vehicle in this experiment. NT-4/5 was obtained from Genentech.
(§1) A difference was considered significant for p<0.05.

db/db mice [2] = assay: HbA1c in db/db mice (Example 1)
Description: as §1
HbA1c levels were determined using an HbA1c kit (ref. 650262, Beckman Coulter, France) and a Synchron CX4 synchronizer. HbA1c is an indicator for blood glucose control over the last 2-3 months. The normal level of HbA1c in C57BL/6J mouse (determined by measuring 8 normal healthy C57BL/6J mice) was about 3.5%.

db/db mice [3] = assay: Blood triglyceride levels in db/db mice (Example 1); details: NT-4/5 20 mg/kg s.c., Rosiglitazone 3 mg/kg p.o.
Description: Test animals: 24 female 10-12 weeks old db/db mice (C57BL/Ks J Rj-db/db, Janvier, France), weighing in the target range of 40-50 g, were used in this study. […] Upon receipt at animal facilities, they were housed 4 per cage covered with filtered caps and at least a 5-day acclimation period was observed.
The mice were divided into three groups of 8 mice each (groups 1-3). Each group was treated with vehicle (PBS) subcutaneously (s.c.), 3 mg/kg Rosiglitazone orally (p.o.), or 20 mg/kg NT-4/5 subcutaneously (s.c.). From day 1 to day 5 (T1-T5) and then from day 8 to day 12 (T8-T12), the mice in groups 2 and 3 were dosed once daily for 5 consecutive days, with a volume of 10 ml/kg.
Collection of samples for analysis: One day before beginning the treatment (T0), non fasted db/db mice were weighed and blood samples were collected through the retro-orbital plexus (about 300 μL/mouse) under isoflurane anesthesia. Similarly, at day 5 (T5), day 12 (T12), day 19 (T19) and day 26 (T26), two hours after the last administration, blood samples were collected through the retro-orbital plexus under isoflurane anesthesia in non fasted mice. […] An aliquot of serum was used for measuring glucose levels, the remaining was frozen until use.
Analysis of blood samples in db/db mice: Pre- and post dose serum levels of glucose, HbA1c, cholesterol and triglycerides, insulin, and non esterified fatty acids (NEFA), as well as aspirate amino-transferase (AST) and alanine amino-transferase activities (ALT) activities, were determined at different time points, as described further herein. At each time point and for each parameter, a mean % of the effect was calculated according to the following formula: ((T final−T initial)/T initial)*100. Statistical analysis was consistent in a one-way analysis of variance followed by multiple comparisons versus the vehicle group (Dunnett's test) on final values. In case the equal variance test fails, a Kruskall-Wallis one-way analysis of variance on ranks was conducted. A difference was considered significant for p<0.05.

db/db mice [4] = assay: Total blood cholesterol levels in db/db mice (Example 1); details: NT-4/5 20 mg/kg s.c., Rosiglitazone 3 mg/kg p.o.
Description: as §1
The blood triglyceride level and the total blood cholesterol level were determined with a triglyceride assay kit (ref 445850, Beckman Coutler, France) and a total cholesterol kit (ref 467825, Beckman Coutler, France), respectively, using a Synchron CX4 analyzer.

db/db mice [5] = assay: Serum nonesterified fatty acids (NEFA) in db/db mice (Example 1); details: NT-4/5 20 mg/kg s.c., Rosiglitazone 3 mg/kg p.o.
Description: as §1
Serum nonesterified fatty acids (NEFA) levels were determined by calorimetric method using a non esterified fatty acids kit (ref. FA 15, Randox, France).

db/db mice [6] = assay: Blood insulin level by ELISA in db/db mice (Example 1); details: NT-4/5 20 mg/kg s.c., Rosiglitazone 3 mg/kg p.o.
Description: as §1
The blood insulin level was determined by ELISA using an Insulin ELIT Plus kit (ref. INSRAT01-8N, Eurobio, France).

db/db mice [7] = assay: Body weight of db/db mice (Example 1); details: NT-4/5 20 mg/kg s.c., Rosiglitazone 3 mg/kg p.o.
Description: (§2) Throughout the experiment period (T1-T26), daily individual body weights as well as food intake per cage were measured.

db/db mice [8] = assay: Food intake of db/db mice (Example 1); details: NT-4/5 20 mg/kg s.c., Rosiglitazone 3 mg/kg p.o.
Description: as §2

CN(CCOc1ccc(CC2SC(=O)NC2=O)cc1)c1ccccn1 (stereo not drawn) [Rosiglitazone, reference compound]
blood glucose levels T0 (db/db mice [1]; day 0, before treatment): 37.56 mM
blood glucose % effect T5-T0 (db/db mice [1]; day 5 vs day 0): −40.5%
blood glucose levels T12 (db/db mice [1]; day 12): 22.24 mM
blood glucose % effect T12-T0 (db/db mice [1]; day 12 vs day 0): −40.9%
blood glucose levels T19 (db/db mice [1]; day 19 (dosing stopped day 12)): 33.74 mM
blood glucose % effect T19-T0 (db/db mice [1]; day 19 vs day 0): −9.0%
blood glucose levels T26 (db/db mice [1]; day 26 (dosing stopped day 12)): 43.60 mM
blood glucose % effect T26-T0 (db/db mice [1]; day 26 vs day 0): 17.5%
HbA1c level decrease at T12 (db/db mice [2]; T12 vs T0): 1%
HbA1c level decrease at T26 (db/db mice [2]; T26 as compared to T0): 9.6%
HbA1c T0 (db/db mice [2]; day 0, before treatment, NT-4/5 20 mg/kg s.c., Rosiglitazone 3 mg/kg p.o.): 5.74%
HbA1c T12 (db/db mice [2]; day 12, NT-4/5 20 mg/kg s.c., Rosiglitazone 3 mg/kg p.o.): 5.69%
HbA1c % effect T12-T0 (db/db mice [2]; day 12 vs day 0, NT-4/5 20 mg/kg s.c., Rosiglitazone 3 mg/kg p.o.): −1.0%
HbA1c T26 (db/db mice [2]; day 26, NT-4/5 20 mg/kg s.c., Rosiglitazone 3 mg/kg p.o.): 5.18%
HbA1c % effect T26-T0 (db/db mice [2]; day 26 vs day 0, NT-4/5 20 mg/kg s.c., Rosiglitazone 3 mg/kg p.o.): −9.6%
triglycerides levels T0 (db/db mice [3]; day 0, before treatment): 1.39 mM
triglycerides levels T5 (db/db mice [3]; day 5): 0.81 mM
triglycerides % effect T5-T0 (db/db mice [3]; day 5 vs day 0): −30.1%
triglycerides levels T12 (db/db mice [3]; day 12): 0.61 mM
triglycerides % effect T12-T0 (db/db mice [3]; day 12 vs day 0): −51.0%
triglycerides levels T19 (db/db mice [3]; day 19): 0.64 mM
triglycerides % effect T19-T0 (db/db mice [3]; day 19 vs day 0): −46.1%
triglycerides levels T26 (db/db mice [3]; day 26): 1.58 mM
triglycerides % effect T26-T0 (db/db mice [3]; day 26 vs day 0): 23.4%
cholesterol levels T0 (db/db mice [4]; day 0, before treatment): 3.27 mM
cholesterol levels T5 (db/db mice [4]; day 5): 3.48 mM
cholesterol % effect T5-T0 (db/db mice [4]; day 5 vs day 0): 6.5%
cholesterol levels T12 (db/db mice [4]; day 12): 3.25 mM
cholesterol % effect T12-T0 (db/db mice [4]; day 12 vs day 0): −0.3%
cholesterol levels T19 (db/db mice [4]; day 19): 3.01 mM
cholesterol % effect T19-T0 (db/db mice [4]; day 19 vs day 0): −7.5%
cholesterol levels T26 (db/db mice [4]; day 26): 3.05 mM
cholesterol % effect T26-T0 (db/db mice [4]; day 26 vs day 0): −6.7%
NEFA levels T0 (db/db mice [5]; day 0, before treatment): 0.782 mM
NEFA levels T5 (db/db mice [5]; day 5): 0.507 mM
NEFA % effect T5-T0 (db/db mice [5]; day 5 vs day 0): −32.8%
NEFA levels T12 (db/db mice [5]; day 12): 0.444 mM
NEFA % effect T12-T0 (db/db mice [5]; day 12 vs day 0): −39.9%
NEFA levels T19 (db/db mice [5]; day 19): 0.739 mM
NEFA % effect T19-T0 (db/db mice [5]; day 19 vs day 0): −2.2%
NEFA levels T26 (db/db mice [5]; day 26): 0.345 mM
NEFA % effect T26-T0 (db/db mice [5]; day 26 vs day 0): −53.7%
insulin levels T0 (db/db mice [6]; day 0, before treatment): 6.93 nM
insulin levels T5 (db/db mice [6]; day 5): 3.94 nM
insulin % effect T5-T0 (db/db mice [6]; day 5 vs day 0): −37.0%
insulin levels T12 (db/db mice [6]; day 12): 2.85 nM
insulin % effect T12-T0 (db/db mice [6]; day 12 vs day 0): −51.8%
insulin levels T19 (db/db mice [6]; day 19): 7.30 nM
insulin % effect T19-T0 (db/db mice [6]; day 19 vs day 0): 14.4%
insulin levels T26 (db/db mice [6]; day 26): 6.33 nM
insulin % effect T26-T0 (db/db mice [6]; day 26 vs day 0): −5.7%
body weight, mean (db/db mice [7]; Day 0): 42.3 g
body weight expressed as % of baseline, mean (db/db mice [7]; Day 1): 98.3 % of baseline
body weight, mean (db/db mice [7]; Day 1): 41.6 g
body weight expressed as % of baseline, mean (db/db mice [7]; Day 2): 99.5 % of baseline
body weight, mean (db/db mice [7]; Day 2): 42.1 g
body weight expressed as % of baseline, mean (db/db mice [7]; Day 3): 100.0 % of baseline
body weight, mean (db/db mice [7]; Day 3): 42.3 g
body weight expressed as % of baseline, mean (db/db mice [7]; Day 4): 100.8 % of baseline
body weight, mean (db/db mice [7]; Day 4): 42.7 g
body weight expressed as % of baseline, mean (db/db mice [7]; Day 5): 102.2 % of baseline
body weight, mean (db/db mice [7]; Day 5): 43.3 g
body weight expressed as % of baseline, mean (db/db mice [7]; Day 6): 100.6 % of baseline
body weight, mean (db/db mice [7]; Day 6): 42.6 g
body weight expressed as % of baseline, mean (db/db mice [7]; Day 7): 101.1 % of baseline
body weight, mean (db/db mice [7]; Day 7): 42.8 g
body weight expressed as % of baseline, mean (db/db mice [7]; Day 8): 102.3 % of baseline
body weight, mean (db/db mice [7]; Day 8): 43.3 g
body weight expressed as % of baseline, mean (db/db mice [7]; Day 9): 103.8 % of baseline
body weight, mean (db/db mice [7]; Day 9): 43.9 g
body weight expressed as % of baseline, mean (db/db mice [7]; Day 10): 104.2 % of baseline
body weight, mean (db/db mice [7]; Day 10): 44.1 g
body weight expressed as % of baseline, mean (db/db mice [7]; Day 11): 104.9 % of baseline
body weight, mean (db/db mice [7]; Day 11): 44.4 g
body weight expressed as % of baseline, mean (db/db mice [7]; Day 12): 106.3 % of baseline
body weight, mean (db/db mice [7]; Day 12): 45.0 g
body weight expressed as % of baseline, mean (db/db mice [7]; Day 13): 104.9 % of baseline
body weight, mean (db/db mice [7]; Day 13): 44.4 g
body weight expressed as % of baseline, mean (db/db mice [7]; Day 14): 105.1 % of baseline
body weight, mean (db/db mice [7]; Day 14): 44.5 g
body weight expressed as % of baseline, mean (db/db mice [7]; Day 15): 104.9 % of baseline
body weight, mean (db/db mice [7]; Day 15): 44.4 g
body weight expressed as % of baseline, mean (db/db mice [7]; Day 18): 105.5 % of baseline
body weight, mean (db/db mice [7]; Day 18): 44.7 g
body weight expressed as % of baseline, mean (db/db mice [7]; Day 19): 106.0 % of baseline
body weight, mean (db/db mice [7]; Day 19): 44.9 g
body weight expressed as % of baseline, mean (db/db mice [7]; Day 20): 104.3 % of baseline
body weight, mean (db/db mice [7]; Day 20): 44.2 g
body weight expressed as % of baseline, mean (db/db mice [7]; Day 21): 105.3 % of baseline
body weight, mean (db/db mice [7]; Day 21): 44.6 g
body weight expressed as % of baseline, mean (db/db mice [7]; Day 22): 105.1 % of baseline
body weight, mean (db/db mice [7]; Day 22): 44.5 g
body weight expressed as % of baseline, mean (db/db mice [7]; Day 25): 106.7 % of baseline
body weight, mean (db/db mice [7]; Day 25): 45.2 g
body weight expressed as % of baseline, mean (db/db mice [7]; Day 26): 106.9 % of baseline
body weight, mean (db/db mice [7]; Day 26): 45.3 g
food intake, mean (db/db mice [8]; Day 1): 100.8 g/kg/day
food intake, mean (db/db mice [8]; Day 2): 124.9 g/kg/day
food intake, mean (db/db mice [8]; Day 3): 137.8 g/kg/day
food intake, mean (db/db mice [8]; Day 5): 143.1 g/kg/day
food intake, mean (db/db mice [8]; Day 6): 63.4 g/kg/day
food intake, mean (db/db mice [8]; Day 7): 96.6 g/kg/day
food intake, mean (db/db mice [8]; Day 8): 129.1 g/kg/day
food intake, mean (db/db mice [8]; Day 9): 139.3 g/kg/day
food intake, mean (db/db mice [8]; Day 10): 140.2 g/kg/day
food intake, mean (db/db mice [8]; Day 11): 128.1 g/kg/day
food intake, mean (db/db mice [8]; Day 12): 114.4 g/kg/day
food intake, mean (db/db mice [8]; Day 13): 98.3 g/kg/day
food intake, mean (db/db mice [8]; Day 14): 129.1 g/kg/day
food intake, mean (db/db mice [8]; Day 15): 100.3 g/kg/day
food intake, mean (db/db mice [8]; Day 18): 108.2 g/kg/day
food intake, mean (db/db mice [8]; Day 19): 102.0 g/kg/day
food intake, mean (db/db mice [8]; Day 20): 90.5 g/kg/day
food intake, mean (db/db mice [8]; Day 21): 129.9 g/kg/day
food intake, mean (db/db mice [8]; Day 22): 122.3 g/kg/day
food intake, mean (db/db mice [8]; Day 25): 125.4 g/kg/day
food intake, mean (db/db mice [8]; Day 26): 109.2 g/kg/day
